Reference: patent US20050106305A1, “Beverage compositions comprising monatin and methods of making same” (Cargill, Inc., priority 2003, published 2005)

Columns and labels:
[1] = Monatin dose response, sweetness estimation in pH 3.2 model soft drink system; assay type: in vivo; conditions: for SEV: pH 3.2 model soft drink system
Procedure: Solutions of monatin (mixture of approximately 96% of the 2R,4R/2S, 4S enantiometric pair and 4% of the 2R,4S/2S,4R enantiometric pair-also called “racemic mix” of monatin”) at 15, 30, 45, 60, 75 and 90 ppm were prepared in a pH 3.2 model soft drink system that contained 0.14% (w/v) citric acid and 0.04% (w/v) sodium citrate. The sweetness of monatin relative to sucrose was determined using the sweetness estimation methodology described below. All assessments were carried out in duplicate by a panel (n=6-8) of trained panelists experienced in this sweetness determination procedure. All samples were served at a temperature of 20° C. ±1° C.
Monatin solutions were coded and presented individually to panelists, in random order. Sucrose reference standards, ranging from 2.0-11.0% (w/v) sucrose, increasing in steps of 0.5% (w/v) sucrose also were provided. Panelists were asked to estimate sweetness by comparing the sweetness of the test solution to the sucrose standards. This was carried out by taking 3 sips of the test solution, followed by a sip of water, followed by 3 sips of sucrose standard followed by a sip of water, etc. Panelists were encouraged to estimate the sweetness to one decimal place, e.g., 6.8, 8.5. A five minute rest period was imposed between evaluating the test solutions. Panelists also were asked to rinse well and eat a cracker to reduce any potential carry over effects.

[2] = Quantitative synergy of monatin with other sweeteners; assay type: in vivo
[3] = Stability of monatin at pH 3 with increasing temperatures; assay type: physicochemical
Procedure: A sample of synthetic monatin was subjected to pH 3 at temperatures of 25° C., 50° C. and 100° C. At room temperature and pH 3, a 14% loss in monatin was observed over a period of 48 hours. This loss was attributed to lactone formation. At 50° C. and pH 3, a 23% loss in monatin was observed over a period of 48 hours. This loss was attributed to lactone formation and the buildup of an unknown compound after about 15.5 minutes. […] The major detectable component was an unknown at 15.5 minutes.

loss in monatin ([3]; 50° C. and pH 3, over 48 hours): 23%
loss in monatin ([3]; 100° C. and pH 3, after 24 hours): nearly all monatin was lost
loss in monatin ([3]; room temperature (25° C.) and pH 3, over 48 hours): 14%
Compound: NC(CC(O)(Cc1c[nH]c2ccccc12)C(=O)O)C(=O)O (racemic) [Monatin, 2-hydroxy-2-(indol-3-ylmethyl)-4-aminoglutaric acid]
SEV ([1]; Monatin Conc. 15 ppm): 3.6 %; w/v
SEV ([1]; Monatin Conc. 30 ppm): 4.9 %; w/v
SEV ([1]; Monatin Conc. 45 ppm): 7.1 %; w/v
SEV ([1]; Monatin Conc. 60 ppm): 8.5 %; w/v
SEV ([1]; Monatin Conc. 75 ppm): 9.8 %; w/v
SEV ([1]; Monatin Conc. 90 ppm): 10.5 %; w/v
relative sweetness intensity ([1]; at 10.0% (w/v) SEV, blend of monatin stereoisomers (racemic mix)): 1250 × sweeter than sucrose
quantitative synergy with aspartame, saccharin, acesulfame-K, sucralose, or carbohydrate sweeteners ([2]; blends): no significant quantitative synergy
quantitative synergy with cyclamates ([2]; blends with cyclamates): quantitatively synergistic
